Data taken from patent publication US20060240400A1, “High-density cell array board, process for producing the same and method of using the same” (priority 2003, published 2006).

Tested on: rat primary hepatic solid tumor cells
Test: Chemical assay on high-density cell array substrate (cell morphology after microdispensed dichlorobenzene)
Format: cell-based
Details: after 10 minutes, 37° C., 0-4.5 mM in steps of 0.5 mM in 10 pl culture medium, single cells on substrates of Examples 1-5
Procedure: Poly-N-isopropylacrylamide, polyacrylamide and polydimethylsiloxane were used as cell adhesive polymer, hydrophilic polymer and highly hydrophobic polymer, respectively. These solutions were used for preparing each layer by the procedure described below. First, a solution of N-isopropylacrylamide monomer in isopropyl alcohol at the concentration shown in Table 1 was applied on a polystyrene base in an amount of 0.01 ml/cm^2 in order to prepare a cell adhesive polymer-coated domain. The coating was irradiated with electron beams at a dose of 0.25 MGy to coat the surface of the base with poly-N-isopropylacrylamide. After irradiation, the substrate was thoroughly washed with water and dried to give a substrate having a poly-N-isopropylacrylamide layer. Then, a solution of acrylamide monomer in isopropyl alcohol at the concentration shown in Table 1 was applied on the substrate in an amount of 0.01 ml/cm^2 in order to prepare a cell non-adhesive hydrophilic polymer-coated domain on the preceding layer. The coating was irradiated with electron beams at a dose similar to the value used in the method described above and then washed and dried to give a substrate having a polyacrylamide layer on the poly-N-isopropylacrylamide layer. […]

Question: For dichlorobenzene, which “dichlorobenzene concentration in culture medium at which cells were morphologically altered” value is on record?
Answer: Its value is no less than 2.5 mM.
